# From patent US20250027930A1, “SMALL MOLECULES FOR REPROGRAMING ANTI-TUMOR IMMUNITY OF T CELLS” (THE SCRIPPS RESEARCH INSTITUTE, priority 2021, published 2025)
# What was measured:
# OT-1 cells = test: OT-I-Tcf7GFP splenocyte screen: proliferation and Tim3−TCF-1+ ratio; format: cell-based, mouse; conditions: Day7, 50 mM
# Experimental: Cell number was recorded on day 3 and day 7. On day 7, cells were stained with anti-CD8a (PerCP-Cy5.5) and anti-Tim3 (BV421) antibodies for flow cytometry or plate reader analysis.
# Because TCF1 expression positively correlates with T cell stemness, the greater signal of EGFP a T cell expresses, the less differentiated the T cell is. Furthermore, if the compound also facilitates T cells proliferation, there would be more T cells per well in comparison to the untreated control. Therefore, a compound that not only maintains TCF-1 expression but also facilitates T cell growth would produce the strongest green fluorescence intensity. […] GlcA stands for glucuronic acid.
# P14 cells = test: P14 splenocyte in vitro activation, re-stimulation and expansion; format: cell-based, mouse; conditions: 50 mM; for Fold of proliferation, Normalized to W/O: P14 cells
# B16-OVA tumor = format: in vivo, mouse
# Experimental: (§1) Naïve splenocytes from OT-1 mice were stimulated in vitro with OVA257-264 (500 nM) and IL-2 (60 IU/mL) in the presence or absence of an added compound for 3 days at a density of 1 million/mL (100 uL/well in 96/well plate), then expanded for 4 days. On day 7, PD-1, Tim3 and TCF-1 expressions were assessed by flow cytometry by staining cells with anti-CD8a (PerCP-Cy5.5), anti-Tim3 (BV421) and anti-TCF-1 (AF488) antibodies. For adoptive transfer, 0.6M B16-OVA cells (6×10^5) were inoculated subcutaneously 3 to 5 days before transfer in C57BL/6. On the day of adoptive transfer, mice were irradiated with 5 Gy X-ray, randomized according to tumor size, and intravenously injected with 0.2-0.3M of CD8+OT-1 T cells (2×10^5) expanded under different conditions, followed by administration of 50000 IU IL-2 every 12 h for four days. In the control group, mice were injected with cell-free vehicle only. For assessment of adoptive transfer of OT-1 CD8+ T cells activated and expanded by contacting the cells with fructose, on day 9 after transfer, anti-PD-1 (100 ug/mouse) was administered to the mice that had received T cell transfer. For assessment of adoptive transfer of OT-1 CD8+ T cells activated and expanded by contacting cells with Neu5Ac, on day 14 and day 21 after transfer, anti-PD-1 (100 ug/mouse) was administered to the mice that had received T cell transfer. The tumor growth was monitored every 3 to 4 days by measuring tumor size. Percent survival was also monitored and recorded within a period of 40 days post treatment. To evaluate tumor infiltrating OT-1 T cells, 0.6M B16-OVA cells (6×10^5) were inoculated subcutaneously 3 to 5 days before transfer in C57BL/6. On the day of adoptive transfer, mice were irradiated with 5 Gy X-ray, randomized according to tumor size, and intravenously injected with 0.2-0.3M of CD8+OT-1 T cells (2×10^5) expanded under different conditions, followed by administration of 50000 IU IL-2 every 12 h for four days. Tumors were then isolated and assessed for percentage of OT-I T cells from the total CD8+ T cells and OT-1 T cell number per gram of tumor tissue. To evaluate apoptosis, Naïve OT-1 splenocytes were stimulated by OVA257-264 (500 nM) without IL-2 in the presence of absence of sugars for 5 days followed by using Annexin V Apoptosis detection kit (Biolegend). […] To evaluate other cellular characteristics, naïve OT-1 splenocytes were stimulated by OVA257-264 (500 nM) with IL-2 (60 IU/mL) in the presence or absence of sugars for 7 or 8 days. On day 7 or 8 cells were taken and analyzed by assessment of ROS, NADPH/NADP+ ratio, and GSH/GSSG ratio.
# OT-1 splenocytes [1] = test: Apoptosis (Annexin V) and IL-2 production of OT-1 splenocytes stimulated without IL-2; format: cell-based, mouse; conditions: OVA257-264 500 nM without IL-2, 5 days
# Experimental: as §1
# OT-1 splenocytes [2] = test: ROS, NADPH/NADP+ ratio and GSH/GSSG ratio of OT-1 splenocytes; format: cell-based, mouse; conditions: day 7 or 8, with IL-2; vs T cells not treated with sugar
# Experimental: as §1
# [3] = test system: MC38 TSA-reactive CD8+ TILs; test: Rapid expansion of TSA-reactive CD8+ TILs from MC38 tumors; format: cell-based, mouse
# Experimental: Sugars were added at the beginning or during the expansion of the TILs, and kept till the end of expansion. On expansion day 9, phenotypes of the expanded T cells were assessed, and the cells were used for adoptive transfer (FIG. 6E). For adoptive transfer, 0.5 million cells (B16-OVA or MC38) were inoculated subcutaneously on each mouse on day 0, Listeria monocytogenes-OVA (LM-OVA) infection 0.5 million CFU/mice on day 1, and blood analysis was recorded on day 7.
# TILs from B16-OVA tumor = format: cell-based, mouse; conditions: day 7 rapid expansion
# Experimental: TILs from B16-OVA tumor were isolated on day10 after inoculation, and Tim-3^−TCF/GFP^+ and Tim-3^+TCF/GFP^− in tetramer positive population were collected by live cell sorting (FIG. 15A). Phenotype features of Tim-3^−TCF/GFP^+ (FIG. 15B) and Tim-3^+TCF/GFP^− (FIG. 15C) were analyzed on day 7 after rapid expansion with feeder cells (TILs/feeder cell: 1/200) in the presence or absence of sugars.
# To investigate which population that sugars mainly changed on T cells, B16-OVA cancer cells (7×10^5 cells) were subcutaneously inoculated into the left or right flank of TCF7^GFP mice expressing an EGFP fluorescent reporter from the endogenous Tcf7 locus, which enable us to track the expression of TCF-1 in live cells.
# OT-I splenocytes = test: OT-I splenocyte culture with purine/pyrimidine pathway compounds; format: cell-based, mouse; conditions: CD8+ T cells
# Experimental: We therefore tested if purine and pyrimidine nucleotides have similar effects as N-Acetylneuraminic acid to help maintain less differentiated phenotypes of T cells during expansion. OT-I splenocytes were cultured with 500 nM […] peptide (OVA257-264) for three days at initial cell density of 1×10^6/mL to activate and expand the CD8+ T cell population. Different concentrations of the products or intermediates in purine or pyrimidine de novo synthesis pathways were added on day 3. The tested compounds include, e.g., guanosine, deoxyguanosine, adenosine, deoxyadenosine, inosine, xanthosine, orotidine, uridine, cytidine, deoxycytidine, thymidine, deoxythymidine, 5-Aminoimidazole-4-carboxamide ribonucleotide (AICAR), orotate, and dihydroorotate. The phenotype of expanded T cells were analyzed on day 5.
# HA-28z CAR T cells = test: HA-28z (GD2) CAR T cell expansion with sugars; conditions: 50 mM, 14 days; both CD8^+ and CD4^+ CAR T cells
structure (smiles),measurement,setting,value
"CC(=O)N[C@H]1[C@H]([C@H](O)[C@H](O)CO)OC(O)(C(=O)O)C[C@@H]1O (stereo partly drawn) [Neu5Ac, N-acetylneuraminic acid]",Tim3^−TCF-1^+ ratio of CD8^+ T cells (%),OT-1 cells; w/o 2.6,59.6%
same,activity at 50000 µM,"OT-1 cells; Mus musculus, Splenocyte, 168 h, OT-1 cells, read-out: Proliferation fold, Normalized to W/O",143%
same,"Fold of proliferation, Normalized to W/O",P14 cells; Day6,2.29 fold
same,Tim3^−TCF-1^+ ratio of CD8^+ T cells (%),"P14 cells; Day6, w/o 55.0",97.4%
same,"Fold of proliferation, Normalized to W/O",P14 cells; Day9,1.40 fold
same,Tim3^−TCF-1^+ ratio of CD8^+ T cells (%),"P14 cells; Day9, w/o 3.5",71.3%
same,capabilities to control tumor growth by way of tumor volume and survival rate,"B16-OVA tumor; treated OT-1 T cells used with anti-PD-1 antibody treatment, vs untreated T cells",significantly better
same,tumor infiltrating OT-1 T cell numbers,B16-OVA tumor; treated T cells transferred to B16-OVA mice,increased
same,viability and apoptotic characteristics,OT-1 splenocytes [1]; vs T cells not treated with sugar,enhanced viability and differential apoptotic characteristics
same,production of IL-2,OT-1 splenocytes [1]; vs no sugar,significantly greater
same,GSH/GSSG ratio,OT-1 splenocytes [2],greater
same,NADPH/NADP+ ratio,OT-1 splenocytes [2],greater
same,ROS,OT-1 splenocytes [2],significantly less
same,cell surface anti-CLA (Cutaneous Lymphocyte-associated Antigen) staining,[3],significant increase
same,reversal of sorted Tim-3^+TCF-GFP^− back to Tim-3^−TCF-GFP^+ phenotype,TILs from B16-OVA tumor,partially reverse
same,maintenance of progenitor exhausted features of sorted Tim-3-TCF-GFP^+ TILs,TILs from B16-OVA tumor; vs without sugars,maintain more Tim-3^−TCF/GFP^+ cells
same,purine and pyrimidine biosynthesis end products and certain intermediates,OT-I splenocytes,upregulated
same,CAR T cells proliferated times faster than cells expanded without sugars,HA-28z CAR T cells,1.5-2 times
